Reference: US20260242416A1, “ANTIMICROBIAL PEPTIDES” (priority 2023, published 2026)
Read-outs that look alike come from different tables or passages of the source. Where a SMILES comes first, the peptide text is derived from it.

Assays:
E. coli ATCC 25922 = type: cell-based, Escherichia coli
Description: (§1) Bacteria were grown overnight at 37° C. in Mueller-Hinton Broth (MHB; Sigma-Aldrich, St. Louis. MO, USA) in a shaking incubator and aliquoted into cryovials with a 50% glycerol solution in a 1:1 ratio. No additives were added to the MHB during the growth of bacterial isolates. Glycerol stocks were stored at −80° C.
(§2) The antimicrobial activity of the putative AMPs was determined by a broth microdilution assay as described by the Clinical and Laboratory Standards Institute, with the published adaptations for testing of cationic peptides. Escherichia coli 25922 and Staphylococcus aureus 29213 isolates were purchased from the American Type Culture Collection (ATCC; Manassas, VA, USA). A human clinical isolate of Salmonella enterica serovar Enteritidis was provided by the BC Centre for Disease Control. Bacteria from stocks stored at −80° C. were streaked onto nonselective Columbia blood agar with 5% sheep blood (Oxoid) and incubated overnight at 37° C. Next, 2-4 colonies were streaked onto a new agar plate to ensure uniform health of colonies used in the broth microdilution assay. Isolated colonies were suspended in MHB and the optical density was measured with a spectrophotometer to create an initial inoculum concentration of approximately 1×10^8 cfu/mL. The inoculum was diluted 1:250 to a final concentration of 2-8×10^5 cfu/mL, which was confirmed by performing a Total Viability Count (TVC). The TVC consisted of plating a 1:1000 dilution of the final inoculum on nonselective media and was also used to confirm the health and purity of the inoculum in each trial.
(§3) Lyophilized 80 μg peptide aliquots synthesized by GenScript (Piscataway, NJ, USA) were resuspended to 1.28 mg/mL with UltraPure water (Thermo Fisher Scientific, Waltham, MA, USA) and serially diluted in polypropylene 96-well microtiter plates (Greiner Bio-One #650261, Kremsmunster, Austria) from 128 down to 0.5 μg/mL. Two columns per plate were reserved for growth and sterility controls. Inoculum was added to the wells containing the peptide and the growth control. Plates were incubated for 20-24 h at 37° C. The minimum inhibitory concentration (MIC) was determined as the lowest peptide concentration where there was no visible bacterial growth.

S. aureus ATCC 29213 = type: cell-based, Staphylococcus aureus
Description: as §1, §2, §3

[1] = system: Salmonella enterica serovar Enteritidis (human clinical isolate); type: cell-based
Description: as §1, §2, §3

[2] = serovar Enteritidis (human clinical isolate)
[3] = Table 14, first value of the cell, three independent experiments, highest concentration tested 128
[4] = Table 14, third value of the cell, three independent experiments, highest concentration tested 128
[5] = Table 14, second value of the cell, three independent experiments, highest concentration tested 128

MIC (ug/mL) E. coli (E. coli ATCC 25922; ATCC 25922) | MIC (ug/mL) S. aureus (S. aureus ATCC 29213; ATCC 29213) | MIC (ug/mL) S. Enteritidis [1, 2] | Compound | MIC (ug/mL) E. coli (E. coli ATCC 25922; [3]) | MIC (ug/mL) S. aureus (S. aureus ATCC 29213; [4]) | MIC (ug/mL) S. Enteritidis [1, 5]
>128/>128/>128 ug/mL | >128/>128/>128 ug/mL | >128/>128/>128 ug/mL | CC[C@H](C)[C@H](NC(=O)[C@H](Cc1ccccc1)NC(=O)[C@H](CCCCN)NC(=O)[C@@H](NC(=O)[C@H](CCCCN)NC(=O)[C@@H](N)CC(N)=O)[C@@H](C)CC)C(=O)N[C@@H](CC(N)=O)C(=O)N[C@@H](CCCCN)C(=O)N[C@@H](Cc1ccc(O)cc1)C(=O)N[C@H](C(=O)N[C@@H](CCCCN)C(=O)N[C@@H](CCCCN)C(=O)N[C@H](C(=O)N[C@@H](CCC(N)=O)C(=O)N[C@@H](CC(C)C)C(=O)N[C@@H](CCCCN)C(=O)N[C@@H](CCCCN)C(=O)N[C@H](C(=O)N[C@@H](CC(C)C)C(=O)N[C@H](C(=O)N[C@@H](CCCCN)C(=O)N[C@@H](CO)C(=O)O)C(C)C)[C@@H](C)CC)C(C)C)C(C)C [BoCo1] (H-NKIKFINKYVKKVQLKKILVKS-OH; N-terminus and C-terminus assumed) |  |  | 
>128/>128/>128 ug/mL | >128/>128/>128 ug/mL | >128/>128/>128 ug/mL | CC[C@H](C)[C@H](NC(=O)[C@H](Cc1c[nH]cn1)NC(=O)[C@H](Cc1c[nH]cn1)NC(=O)[C@H](Cc1c[nH]cn1)NC(=O)[C@@H](N)CCCCN)C(=O)N[C@@H](CCCCN)C(=O)N[C@@H](CC(C)C)C(=O)N[C@@H](CCCNC(=N)N)C(=O)N[C@@H](Cc1c[nH]cn1)C(=O)NCC(=O)N[C@@H](CCCNC(=N)N)C(=O)N[C@@H](Cc1c[nH]cn1)C(=O)N[C@@H](CCCNC(=N)N)C(=O)N[C@@H](CCCNC(=N)N)C(=O)N[C@@H](CO)C(=O)N[C@H](C(=O)N[C@@H](CC(C)C)C(=O)N[C@@H](CCCNC(=N)N)C(=O)N[C@H](C(=O)N[C@@H](CC(C)C)C(=O)N[C@H](C(=O)O)C(C)C)[C@@H](C)O)C(C)C [CaCa3] (H-KHHHIKLRHGRHRRSVLRTLV-OH; N-terminus and C-terminus assumed) |  |  | 
 |  |  | CC[C@H](C)[C@H](NC(=O)CN)C(=O)N[C@@H](Cc1ccccc1)C(=O)N[C@@H](CO)C(=O)N[C@@H](CC(C)C)C(=O)N[C@H](C(=O)N[C@@H](CCCCN)C(=O)NCC(=O)N[C@@H](C)C(=O)N[C@@H](C)C(=O)N[C@@H](CCCCN)C(=O)O)[C@@H](C)CC [LeBo1, GIFSLIKGAAK] (H-GIFSLIKGAAK-OH; N-terminus and C-terminus assumed) | >128/>128/>128 ug/mL | >128/>128/>128 ug/mL | >128/>128/>128 ug/mL
>128/>128/>128 ug/mL | >128/>128/>128 ug/mL | >128/>128/>128 ug/mL | CSCC[C@H](NC(=O)[C@@H](N)C(C)C)C(=O)N[C@@H](CC(C)C)C(=O)N1CCC[C@H]1C(=O)N[C@@H](CCCCN)C(=O)N[C@@H](Cc1ccccc1)C(=O)N[C@@H](CCCCN)C(=O)N[C@@H](CCCNC(=N)N)C(=O)O [MiDe1, VMLPKFKR] (H-VMLPKFKR-OH; N-terminus and C-terminus assumed) |  |  | 
>128/>128/>128 ug/mL | >128/>128/>128 ug/mL | >128/>128/>128 ug/mL | CC[C@H](C)[C@H](NC(=O)[C@H](CC(=O)O)NC(=O)[C@H](CO)NC(=O)[C@H](CC(C)C)NC(=O)[C@@H]1CCCN1C(=O)[C@@H](N)[C@@H](C)O)C(=O)N[C@@H](Cc1ccccc1)C(=O)N[C@@H](CCCNC(=N)N)C(=O)NCC(=O)N[C@@H](CCC(N)=O)C(=O)N[C@@H](CC(C)C)C(=O)N[C@@H](CCCNC(=N)N)C(=O)N[C@@H](CO)C(=O)N[C@@H](CCCNC(=N)N)C(=O)N[C@H](C(=O)N[C@@H](CO)C(=O)N[C@@H](CCCNC(=N)N)C(=O)O)C(C)C [NaVi1, TPLSDIFRGQLRSRVSR] (H-TPLSDIFRGQLRSRVSR-OH; N-terminus and C-terminus assumed) |  |  | 
>128/>128/>128 ug/mL | >128/>128/>128 ug/mL | >128/>128/>128 ug/mL | CC(C)C[C@H](NC(=O)CNC(=O)[C@H](CO)NC(=O)[C@H](CO)NC(=O)[C@H](CO)NC(=O)[C@H](CO)NC(=O)[C@H](CC(C)C)NC(=O)[C@@H]1CCCN1C(=O)[C@H](CO)NC(=O)[C@H](CC(C)C)NC(=O)[C@H](CO)NC(=O)[C@@H](N)CO)C(=O)NCC(=O)N[C@@H](CCCCN)C(=O)N[C@@H](CCCCN)C(=O)N[C@@H](CCCCN)C(=O)N[C@@H](CCCCN)C(=O)N[C@@H](CCCNC(=N)N)C(=O)N[C@@H](CCCCN)C(=O)N[C@@H](CO)C(=O)N[C@@H](CCCCN)C(=O)N[C@@H](CCCNC(=N)N)C(=O)N[C@@H](C)C(=O)N[C@@H](CO)C(=O)N[C@@H](CCCNC(=N)N)C(=O)O [NaVi2] (H-SSLSPLSSSSGLGKKKKRKSKRASR-OH; N-terminus and C-terminus assumed) |  |  | 
>128/>128/>128 ug/mL | >128/>128/>128 ug/mL | >128/>128/>128 ug/mL | CC[C@H](C)[C@H](NC(=O)[C@H](CS)NC(=O)[C@H](CCCNC(=N)N)NC(=O)[C@H](CS)NC(=O)[C@H](CO)NC(=O)[C@H](CCCNC(=N)N)NC(=O)[C@H](CO)NC(=O)[C@H](CO)NC(=O)[C@H](CO)NC(=O)CN)C(=O)N[C@@H](CCCNC(=N)N)C(=O)N[C@@H](CC(C)C)C(=O)N[C@@H](CO)C(=O)N[C@@H](CCCNC(=N)N)C(=O)N[C@@H](CC(C)C)C(=O)N[C@@H](CO)C(=O)N[C@@H](CO)C(=O)N[C@@H](CCCCN)C(=O)N[C@@H](CCCNC(=N)N)C(=O)N[C@H](C(=O)O)[C@@H](C)O [NaVi4] (H-GSSSRSCRCIRLSRLSSKRT-OH; N-terminus and C-terminus assumed) |  |  | 
 |  |  | CC[C@H](C)[C@H](NC(=O)CNC(=O)[C@H](CO)NC(=O)[C@@H](NC(=O)[C@H](CC(C)C)NC(=O)CN)[C@@H](C)CC)C(=O)N[C@@H](CC(C)C)C(=O)NCC(=O)N[C@@H](C)C(=O)NCC(=O)N[C@@H](CCCCN)C(=O)N[C@@H](CCCCN)C(=O)O [OdMa8, GLISGILGAGKK] (H-GLISGILGAGKK-OH; N-terminus and C-terminus assumed) | >128/>128/>128 ug/mL | >128/>128/>128 ug/mL | >128/>128/>128 ug/mL
>128/>128/>128 ug/mL | >128/>128/>128 ug/mL | >128/>128/>128 ug/mL | CC[C@H](C)[C@H](NC(=O)[C@H](Cc1c[nH]cn1)NC(=O)[C@H](Cc1c[nH]cn1)NC(=O)[C@H](Cc1ccc(O)cc1)NC(=O)[C@@H](N)CCCCN)C(=O)N[C@@H](CCCCN)C(=O)N[C@@H](CC(C)C)C(=O)N[C@@H](CCCNC(=N)N)C(=O)N[C@@H](Cc1c[nH]cn1)C(=O)NCC(=O)N[C@@H](CCCNC(=N)N)C(=O)N[C@@H](Cc1c[nH]cn1)C(=O)N[C@@H](CCCNC(=N)N)C(=O)N[C@@H](CCCNC(=N)N)C(=O)N[C@H](C(=O)N[C@H](C(=O)N[C@@H](Cc1c[nH]cn1)C(=O)O)[C@@H](C)CC)[C@@H](C)O [PaVa2, KYHHIKLRHGRHRRTIH] (H-KYHHIKLRHGRHRRTIH-OH; N-terminus and C-terminus assumed) |  |  | 
>128/>128/>128 ug/mL | >128/>128/>128 ug/mL | >128/>128/>128 ug/mL | CC[C@H](C)[C@H](N)C(=O)N[C@H](C(=O)N[C@@H](CCC(=O)O)C(=O)N1CCC[C@H]1C(=O)N[C@H](C(=O)NCC(=O)N[C@H](C(=O)N[C@@H](CCCCN)C(=O)N[C@@H](C)C(=O)N1CCC[C@H]1C(=O)N[C@H](C(=O)N[C@@H](Cc1ccccc1)C(=O)N[C@H](C(=O)N[C@@H](CO)C(=O)N[C@@H](CCC(=O)O)C(=O)N[C@@H](CC(C)C)C(=O)N[C@@H](CCCNC(=N)N)C(=O)NCC(=O)NCC(=O)N[C@@H](Cc1c[nH]c2ccccc12)C(=O)N[C@@H](CC(C)C)C(=O)N[C@@H](CCCCN)C(=O)N[C@@H](CCCCN)C(=O)N[C@@H](CCCNC(=N)N)C(=O)O)[C@@H](C)O)[C@@H](C)O)[C@@H](C)O)C(C)C)[C@@H](C)O [PaVa3] (H-ITEPVGTKAPTFTSELRGGWLKKR-OH; N-terminus and C-terminus assumed) |  |  | 
>128/>128/>128 ug/mL | >128/>128/>128 ug/mL | >128/>128/>128 ug/mL | CC(C)C[C@H](NC(=O)[C@H](C)NC(=O)[C@@H](N)Cc1c[nH]c2ccccc12)C(=O)N[C@@H](CCCNC(=N)N)C(=O)N[C@@H](Cc1c[nH]c2ccccc12)C(=O)N[C@@H](CCCCN)C(=O)N[C@H](C(=O)N[C@@H](CCCNC(=N)N)C(=O)O)[C@@H](C)O [PaVi1, WALRWKTR] (H-WALRWKTR-OH; N-terminus and C-terminus assumed) |  |  | 
